Drawing on patent US10562912B2 (C&C Research Laboratories, priority 2013, dated 2020), this text covers IC50 for 15 compounds.

What all share (assay type): cell-based
In assay [1] the test system is DU-145. As to the kind of experiment: Cell growth inhibition assay, prostate cancer cell line DU-145. The note with it: Homo sapiens, DU-145 prostate cancer cell line. Here is the method: (§1) The inhibitory effects of the compounds of the present invention against the growth of cancer cells were evaluated as shown below. The cancer cell lines including stomach cancer cell line (AGS), breast cancer cell lines (MDA-MB-231, MDA-MB-468, and BT-549), prostate cancer cell lines (LNCaP and DU-145), colon cancer cell line (HCT116), ovarian cancer cell line (SW626), liver cancer cell line (Hep3B), kidney cancer cell line (ACHN), lung cancer cell line (NCI-H23) and blood cancer cell lines (HEL92.1.7 and U266) were cultured under the protocol provided by each supplier. A medium supplemented with 10 ng/mL of IL-6 was used for LNCaP, a prostate cancer cell line, when treated with a drug. Each type of cells to be used in experiments were sub-cultured in a 96-well plate by counting the exact number of cells using Tali™ Image-based Cytometer (Life Technologies). In a 96-well plate, AGS, HCT116, and DU-145 were employed with 3,000 cells/well; NCI-H23, SW626, Hep3B, ACHN, BT-549, MDA-MB-231, HEL92.1.7, and U266 were employed with 5,000 cells/well; and LNCaP and MDA-MB-468 were employed with 10,000 cells/well. The cells were treated with the compounds listed in Examples which were diluted in various concentrations. Upon completion of the compounds treatment, AGS, HCT116, SW626, DU145, NCI-H23, Hep3B, ACHN, BT-549, LNCaP, HEL92.1.7, and U266 cells were cultured at 37° C. under 5% CO2 for from 72 to 96 hours, and MDA-MB-231 and MDA-MB-468 cells were cultured at 37° C. in air for from 72 to 96 hours. Subsequently, the cells were observed under microscope and drug precipitation and particular findings were investigated and recorded. And then, the 96-well plate was placed at room temperature for 30 minutes, added with 20 μL/well of CellTiter-Glo solution (Cat No. G7573, Promega) and shaken for 10 minutes, followed by being subjected to the measurement using PHERAstar™ microplate reader (BMG LABTECH) according to the supplier's general luminometer protocol. Wells where only culture liquid added without cell plating were used as a negative control, whereas wells where culture liquid containing 0.1% DMSO instead of the compounds listed in Examples were used as a positive control.

The target of assay [2] is T1, STAT3 (Homo sapiens, UniProt P40763).
T1 construct: plasmid pSTAT3-TA-luc), which contains a stably operating STAT3 promoter; endogenous in cells
T1 sequence (P40763 whole entry): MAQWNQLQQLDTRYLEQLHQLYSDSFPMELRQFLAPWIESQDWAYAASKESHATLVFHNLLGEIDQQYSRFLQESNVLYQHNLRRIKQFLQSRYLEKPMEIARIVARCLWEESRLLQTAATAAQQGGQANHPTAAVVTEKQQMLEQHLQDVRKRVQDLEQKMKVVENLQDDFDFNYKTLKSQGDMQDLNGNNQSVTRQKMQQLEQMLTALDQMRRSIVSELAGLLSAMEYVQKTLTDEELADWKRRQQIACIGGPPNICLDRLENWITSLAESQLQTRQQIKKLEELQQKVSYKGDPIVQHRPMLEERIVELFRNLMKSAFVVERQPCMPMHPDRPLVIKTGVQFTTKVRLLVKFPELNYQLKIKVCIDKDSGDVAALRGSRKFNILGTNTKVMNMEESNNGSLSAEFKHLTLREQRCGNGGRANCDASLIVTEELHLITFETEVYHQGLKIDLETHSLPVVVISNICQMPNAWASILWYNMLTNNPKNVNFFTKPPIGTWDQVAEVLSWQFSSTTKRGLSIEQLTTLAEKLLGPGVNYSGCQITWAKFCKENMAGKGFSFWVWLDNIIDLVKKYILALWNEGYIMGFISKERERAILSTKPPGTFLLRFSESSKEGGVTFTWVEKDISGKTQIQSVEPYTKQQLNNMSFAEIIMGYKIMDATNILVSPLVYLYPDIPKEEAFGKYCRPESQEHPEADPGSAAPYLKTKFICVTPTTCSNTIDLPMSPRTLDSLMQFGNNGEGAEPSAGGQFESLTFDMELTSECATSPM
Put plainly: STAT3 reporter gene assay (luciferase), LNCaP stable cell line (pSTAT3-TA-luc), IL-6 stimulation. Here is the method:
1-1) Experiment on the Inhibition of STAT3 Activity
A human prostate cancer cell line (LNCaP stable cell line; plasmid pSTAT3-TA-luc), which contains a stably operating STAT3 promoter, was cultured in RPMI1640 medium (Cat No. 11875, Life Technologies) containing 10% fetal bovine serum (FBS) (Cat No. SH30396, Thermo Scientific) and 150 μg/mL G-418 solution (Cat No. 04 727 894 001, Roche). The reporter gene assay using LNCaP stable cell line was performed in RPMI1640 medium containing 3% DCC-FBS without G-418 solution. LNCaP stable cells were plated in two (2) white 96-well plates with 30,000 cells/50 μL in each well. The cells were cultured at 37° C., under 5% CO2 for 24 hours, and then treated with the compounds listed in Examples which were diluted in various concentrations. Subsequently, IL-6 was added to each well with a final concentration of 10 ng/mL. Upon completion of the treatment with the compounds and IL-6, the cells were cultured at 37° C., under 5% CO2 for from 24 to 48 hours. The plates were observed under microscope and drug precipitation and particular findings were investigated and recorded.
The luciferase assay and the cell viability assay were performed respectively with one of the two plates. For the luciferase assay, the liquid media in the 96-well plate was removed, and then, 20 μL of passive cell lysis buffer was added to each well. After shaking the plate for 30 minutes, luciferase activities of each well were measured in a PHERAstar™ microplate reader (BMG LABTECH) using a luciferase assay system (Cat No. E1501, Promega). For the cell viability assay, the 96-well plate was placed at room temperature for 30 minutes, added with 20 μL/well of CellTiter-Glo solution (Cat No. G7573, Promega), and shaken for 10 minutes in order to measure cytotoxicity caused by the compounds listed in Examples with a PHERAstar™ microplate reader (BMG LABTECH). Wells without 0.1% DMSO and stimulation were used as a negative control and wells with 0.1% DMSO and stimulation were used as a positive control.
Background: A reporter such as luciferase makes a cellular process visible.

In assay [3] the test system is LNCaP. As to the kind of experiment: Cell growth inhibition assay, prostate cancer cell line LNCaP (medium with 10 ng/mL IL-6). The note with it: Homo sapiens, medium supplemented with 10 ng/mL of IL-6, 10,000 cells/well. As to the method: as §1

For `C=CCOc1cc(OC(F)(F)F)cc(C(C)(C)c2cc(Cl)cc(NC(=O)c3cc4cc(NS(C)(=O)=O)ccc4s3)c2)c1` [Example 78, N-(3-(2-(3-(allyloxy)-5-(trifluoromethoxy)phenyl)propan-2-yl)-5-chlorophenyl)-5-(methylsulfonamido)benzo[b]thiophene-2-carboxamide], the half-maximal inhibitory concentration (IC50) (usually the concentration that inhibits the measured activity by half) amounted to 0.009 µM in assay [1], 0.017 µM in assay [2] and 0.038 µM in assay [3].

For the compound `CC(C)(c1cc(Cl)cc(NC(=O)c2cc3cc(NS(C)(=O)=O)ccc3s2)c1)c1cc(OC2CC2)cc(OC(F)(F)F)c1` [Example 79, N-(3-chloro-5-(2-(3-cyclopropoxy-5-(trifluoromethoxy)phenyl)propan-2-yl)phenyl)-5-(methylsulfonamido)benzo[b]thiophene-2-carboxamide], the IC50 was 0.008 µM in assay [1], 0.014 µM in assay [2] and 0.039 µM in assay [3].

In the case of `COc1cc(OC(F)(F)F)cc(C(C)(C)c2cc(Br)cc(NC(=O)c3cc4cc(NS(C)(=O)=O)ncc4[nH]3)c2)c1` [Example 99, N-(3-bromo-5-(2-(3-methoxy-5-(trifluoromethoxy)phenyl)propan-2-yl)phenyl)-5-(methylsulfonamido)-1H-pyrrolo[2,3-c]pyridine-2-carboxamide 2,2,2-trifluoroacetate], the half-inhibitory concentration (IC50) in assay [1] was determined as 0.8 µM; in assay [2] it was 0.22 µM; in assay [3], 1.5 µM.

Regarding `CC(C)Oc1cc(OC(F)(F)F)cc(C(C)(C)c2cc(Cl)cc(NC(=O)c3cc4ccc(NS(C)(=O)=O)nc4[nH]3)c2)c1` [Example 100, N-(3-chloro-5-(2-(3-isopropoxy-5-(trifluoromethoxy)phenyl)propan-2-yl)phenyl)-6-(methylsulfonamido)-1H-pyrrolo[2,3-b]pyridine-2-carboxamide], the half-maximal inhibitory concentration (IC50) in assay [1] is 0.33 µM; in assay [2] it was 0.042 µM; in assay [3] it was greater than 10 µM.

Turning to `CC(C)Oc1cc(OC(F)(F)F)cc(C(C)(C)c2cc(Cl)cc(NC(=O)c3cc4cnc(NS(C)(=O)=O)cc4[nH]3)c2)c1` [Example 101, N-(3-chloro-5-(2-(3-isopropoxy-5-(trifluoromethoxy)phenyl)propan-2-yl)phenyl)-6-(methylsulfonamido)-1H-pyrrolo[3,2-c]pyridine-2-carboxamide], the IC50 in assay [1] was found to be 0.44 µM; in assay [2] it was 0.28 µM; in assay [3], 1.1 µM.

`CC(C)Oc1cc(OC(F)(F)F)cc(C(C)(C)c2cc(Cl)cc(NC(=O)c3cc4c(s3)CCN(NS(C)(=O)=O)C4)c2)c1` [Example 104, N-(3-chloro-5-(2-(3-isopropoxy-5-(trifluoromethoxy)phenyl)propan-2-yl)phenyl)-5-(methylsulfonamido)-4,5,6,7-tetrahydrothieno[3,2-c]pyridine-2-carboxamide]: the IC50 in assay [1] was found to be 0.58 µM; in assay [2], 0.224 µM; in assay [3], 0.42 µM.

For the compound `CC(C)Oc1cc(OC(F)(F)F)cc(C(C)(C)c2cc(Cl)cc(NC(=O)c3cc4cc(NS(C)(=O)=O)c(Cl)cc4s3)c2)c1` [Example 105, 6-chloro-N-(3-chloro-5-(2-(3-isopropoxy-5-(trifluoromethoxy)phenyl)propan-2-yl)phenyl)-5-(methylsulfonamido)benzo[b]thiophene-2-carboxamide], the IC50 in assay [1] came to 0.001 µM; in assay [2], 0.005 µM; in assay [3], 0.002 µM.

Take `COc1cccc(C(C)(C)c2cc(Cl)cc(NC(=O)c3cc4cc(NS(C)(=O)=O)ccc4s3)c2)c1` [Example 106, N-(3-chloro-5-(2-(3-methoxyphenyl)propan-2-yl)phenyl)-5-(methylsulfonamido)benzo[b]thiophene-2-carboxamide]: the concentration for half-maximal inhibition (IC50) in assay [1] was 0.031 µM; in assay [2], 0.52 µM; in assay [3], 0.11 µM.

As for `CC#Cc1cc(OC(F)(F)F)cc(C(C)(C)c2cc(Cl)cc(NC(=O)c3cc4cc(NS(C)(=O)=O)ccc4s3)c2)c1` [Example 114, N-(3-chloro-5-(2-(3-(prop-1-yn-1-yl)-5-(trifluoromethoxy)phenyl)propan-2-yl)phenyl)-5-(methylsulfonamido)benzo[b]thiophene-2-carboxamide], the values for the IC50 in assay [1], in assay [2] and in assay [3] were 0.014 µM, 0.02 µM and 0.061 µM, respectively.

As to `CC(C)(c1cccc(Cn2ccnc2)c1)c1cc(Br)cc(NC(=O)c2cc3cc(NS(C)(=O)=O)ccc3s2)c1` [Example 120, N-(3-(2-(3-((1H-imidazol-1-yl)methyl)phenyl)propan-2-yl)-5-bromophenyl)-5-(methylsulfonamido)benzo[b]thiophene-2-carboxamide], the IC50 was 2.2 µM in assay [1], 0.66 µM in assay [2] and 3.6 µM in assay [3].

As for `CC(C)Oc1cc(CN2CCNCC2)cc(C(C)(C)c2cc(Br)cc(NC(=O)c3cc4cc(NS(C)(=O)=O)ccc4s3)c2)c1` [Example 124, N-(3-bromo-5-(2-(3-isopropoxy-5-(piperazin-1-ylmethyl)phenyl)propan-2-yl)phenyl)-5-(methylsulfonamido)benzo[b]thiophene-2-carboxamide], the values for the IC50 in assay [1], in assay [2] and in assay [3] were 2.1 µM, 4 µM and 6.5 µM, respectively.

As to `CC(C)Oc1cc(CN2CCCC2)cc(C(C)(C)c2cc(Cl)cc(NC(=O)c3cc4cc(NS(C)(=O)=O)ccc4s3)c2)c1` [Example 125, N-(3-chloro-5-(2-(3-isopropoxy-5-(pyrrolidin-1-ylmethyl)phenyl)propan-2-yl)phenyl)-5-(methylsulfonamido)benzo[b]thiophene-2-carboxamide], the results for the IC50 in assay [1], in assay [2] and in assay [3] were 0.46 µM, 0.89 µM and 2.1 µM, respectively.

With `CC(C)Oc1cc(CN2CCOCC2)cc(C(C)(C)c2cc(Cl)cc(NC(=O)c3cc4cc(NS(C)(=O)=O)ccc4s3)c2)c1` [Example 126, N-(3-chloro-5-(2-(3-isopropoxy-5-(morpholinomethyl)phenyl)propan-2-yl)phenyl)-5-(methylsulfonamido)benzo[b]thiophene-2-carboxamide], the IC50 in assay [1] stood at 0.11 µM; in assay [2], 0.1 µM; in assay [3], 0.11 µM.

On to `CC(C)Oc1cc(CN2CCN(S(C)(=O)=O)CC2)cc(C(C)(C)c2cc(Cl)cc(NC(=O)c3cc4cc(NS(C)(=O)=O)ccc4s3)c2)c1` [Example 128, N-(3-chloro-5-(2-(3-isopropoxy-5-((4-(methylsulfonyl)piperazin-1-yl)methyl)phenyl)propan-2-yl)phenyl)-5-(methylsulfonamido)benzo[b]thiophene-2-carboxamide], for which the values for the IC50 in assay [1], in assay [2] and in assay [3] were 0.15 µM, 0.27 µM and 0.41 µM, respectively.

`CC(C)Oc1cc(CN2CCN(S(=O)(=O)N(C)C)CC2)cc(C(C)(C)c2cc(Cl)cc(NC(=O)c3cc4cc(NS(C)(=O)=O)ccc4s3)c2)c1` [Example 131, N-(3-chloro-5-(2-(3-((4-(N,N-dimethylsulfamoyl)piperazin-1-yl)methyl)-5-isopropoxyphenyl)propan-2-yl)phenyl)-5-(methylsulfonamido)benzo[b]thiophene-2-carboxamide]: the IC50 in assay [1] was determined as 0.1 µM; in assay [2], 0.085 µM; in assay [3], 0.26 µM.
